Data published in patent US20240287138A1, “CYCLIC PEPTIDES FOR INHIBITING TNF RECEPTOR 1 ACTIVITY” (Merck Sharp & Dohme LLC, priority 2023, published 2024).
Numbered stars: 1 amine (or outer) side, 2 acyl side, 3 side chain; on linkers, the order of the positions; unused ones are H or OH. Bridge positions count the residues as written; N and C are the ends. Square brackets hold non-standard residues; d marks the D form. Peptide text beside a SMILES is read from it. * marks the point of attachment. Trp(βS-Me,7-OMe) = COc1cccc2c([C@H](C)[C@H](N)C(=O)O)c[nH]c12; Trp(7-CN) = N#Cc1cccc2c(C[C@H](N)C(=O)O)c[nH]c12; Trp(7-Cl) = N[C@@H](Cc1c[nH]c2c(Cl)cccc12)C(=O)O; X27 = O=C(O)c1ccc(C[C@H](N[*:1])C(=O)[*:2])cc1F; Phe(3-CONH2) = NC(=O)c1cccc(C[C@H](N)C(=O)O)c1; Phe(4-CONH2) = NC(=O)c1ccc(C[C@H](N)C(=O)O)cc1; Phe(4-COOH) = N[C@@H](Cc1ccc(C(=O)O)cc1)C(=O)O; Trp(7-aza) = N[C@@H](Cc1c[nH]c2ncccc12)C(=O)O; Trp(1-Me) = Cn1cc(C[C@H](N)C(=O)O)c2ccccc21; Pip(5R-OH) = O=C(O)[C@@H]1CC[C@@H](O)CN1; X1 = O=C([C@@H]1CC[C@H](N[*:1])C1)[*:2]; Isoxazole(3-carbonyl) = O=C(c1ccon1)*; Pip(4-aza) = O=C(O)[C@@H]1CNCCN1; 4Pal = N[C@@H](Cc1ccncc1)C(=O)O; NMeE = CN[C@@H](CCC(=O)O)C(=O)O; dHyp = O=C(O)[C@H]1C[C@H](O)CN1; Ahp(2) = CCCCC[C@H](N)C(=O)O; αMeS = C[C@](N)(CO)C(=O)O; Nle = CCCC[C@H](N)C(=O)O; Dab = NCC[C@H](N)C(=O)O; Sar = CNCC(=O)O

How the values were obtained:
[1] = biological target: T1, human TNFR1 extracellular domain (ECD) protein (Homo sapiens, UniProt P19438); experiment: SPR binding affinity to captured human TNFR1 ECD
T1 construct: HRV 3C protease cleavage site (C); 6His (C, cleaved yes); made in house; host or cells: Sf21 insect cells (baculovirus), secreted
T1 sequence (P19438 30-211): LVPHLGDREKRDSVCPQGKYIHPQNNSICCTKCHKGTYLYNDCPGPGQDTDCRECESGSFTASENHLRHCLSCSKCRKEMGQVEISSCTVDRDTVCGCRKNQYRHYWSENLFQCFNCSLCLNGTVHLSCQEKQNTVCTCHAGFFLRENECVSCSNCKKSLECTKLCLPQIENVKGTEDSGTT
Summary of the method: (§1)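 Peptides are tested against captured biotin-tagged human TNFR1 ECD, with parallel TNFR2 ECD binding to check selectivity. Buffer: 10 mM HEPES pH 7.4, 150 mM NaCl, 3 mM EDTA, 0.05% P20, 2% DMSO.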

human TNFR2 ECD protein = biological target: T2, human TNFR2 ECD protein (Homo sapiens, UniProt P20333); experiment: SPR off-target binding (selectivity) to human TNFR2 ECD
T2 construct: HRV 3C protease cleavage site (C); 6His (C, cleaved yes); made in house; host or cells: Sf21 insect cells (baculovirus), secreted
T2 sequence (P20333 23-257): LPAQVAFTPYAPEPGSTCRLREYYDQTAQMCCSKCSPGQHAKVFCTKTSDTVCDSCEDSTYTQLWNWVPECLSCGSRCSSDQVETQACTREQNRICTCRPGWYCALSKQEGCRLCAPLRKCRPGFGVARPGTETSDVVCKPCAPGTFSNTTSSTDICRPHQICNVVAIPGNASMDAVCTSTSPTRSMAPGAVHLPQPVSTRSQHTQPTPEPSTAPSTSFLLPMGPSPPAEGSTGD
Summary of the method: as §1

[2] = biological target: T3, TNFα-induced NF-κB signal transduction pathway (TNFR1 signaling) in THP-1 cells (Homo sapiens, UniProt P19438); experiment: THP-1 Lucia NF-κB reporter cell assay, inhibition of TNFα-induced NF-κB signaling; type: cell-based; conditions: THP-1 NF-κB Lucia reporter cells, 10 ng/mL TNFα, 16-18 h, secreted luciferase; read-out: THP-1 IC50
T3 sequence (P19438 30-455): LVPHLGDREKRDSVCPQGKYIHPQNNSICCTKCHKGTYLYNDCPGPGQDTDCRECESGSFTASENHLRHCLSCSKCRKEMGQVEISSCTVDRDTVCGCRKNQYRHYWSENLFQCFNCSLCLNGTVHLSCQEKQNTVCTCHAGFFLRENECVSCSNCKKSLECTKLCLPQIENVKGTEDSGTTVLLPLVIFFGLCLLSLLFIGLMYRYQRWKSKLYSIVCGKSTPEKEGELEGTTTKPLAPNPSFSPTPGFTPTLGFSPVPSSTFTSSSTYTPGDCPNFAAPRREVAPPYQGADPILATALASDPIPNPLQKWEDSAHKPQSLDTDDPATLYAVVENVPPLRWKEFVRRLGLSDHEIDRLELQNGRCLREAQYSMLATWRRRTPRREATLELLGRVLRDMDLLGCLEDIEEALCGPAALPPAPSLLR
Summary of the method: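 IC50 from a 4-parameter logistic fit of secreted luciferase luminescence (QUANTI-Luc), normalised to min/max controls. Reporter THP-1 cells were exposed to peptides for 1 h at 37 °C before 10 ng/mL TNFα (final) was added overnight (16–18 h).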

SMILES: COc1cccc2c([C@H](C)[C@@H]3NC(=O)CN(C)C(=O)[C@H](Cc4cccc(C(N)=O)c4)NC(=O)[C@H](Cc4ccc(C(N)=O)cc4)NC(=O)[C@](C)(CO)NC(=O)[C@H](Cc4c[nH]c5c(Cl)cccc45)NC(=O)[C@H](Cc4ccncc4)NC(=O)[C@H](CC(N)=O)NC(=O)[C@H]4C[C@H](O)CN4C(=O)[C@H](Cc4c[nH]c5ccccc45)NC(=O)[C@@H]4CC[C@@H](O)CN4C(=O)[C@H](Cc4ccncc4)NC(=O)[C@H](CCNC(=O)c4ccon4)NC(=O)[C@@H]4CC[C@@H](C4)NC3=O)c[nH]c12 [SEQ ID NO. 169] (cyclo([4Pal][Trp(7-Cl)][αMeS][Phe(4-CONH2)][Phe(3-CONH2)][Sar][Trp(βS-Me,7-OMe)][X1][Dab](Isoxazole(3-carbonyl))[4Pal][Pip(5R-OH)]W[dHyp]N))
- Kd [1]: 0.08 nM
- Kd (human TNFR2 ECD protein): > 1000 nM
- IC50 [2]: 0.6 nM

SMILES: CCCC[C@@H]1NC(=O)[C@@H]2CC[C@@H](C2)NC(=O)[C@H]([C@@H](C)c2c[nH]c3c(OC)cccc23)NC(=O)CN(C)C(=O)[C@H](Cc2ccc(O)cc2)NC(=O)[C@H](Cc2ccc(C(=O)O)cc2)NC(=O)[C@](C)(CO)NC(=O)[C@H](Cc2c[nH]c3c(Cl)cccc23)NC(=O)[C@H](Cc2ccncc2)NC(=O)[C@H](CC(N)=O)NC(=O)CN(C)C(=O)[C@H](Cc2c[nH]c3ccccc23)NC(=O)[C@@H]2CNCCN2C(=O)[C@H](Cc2ccncc2)NC1=O [SEQ ID NO. 141] (cyclo([4Pal][Trp(7-Cl)][αMeS][Phe(4-COOH)]Y[Sar][Trp(βS-Me,7-OMe)][X1][Nle][4Pal][Pip(4-aza)]W[Sar]N))
- Kd [1]: 0.06 nM
- Kd (human TNFR2 ECD protein): > 1000 nM
- IC50 [2]: 1.2 nM

SMILES: CCCCC[C@@H]1NC(=O)[C@@H]2CC[C@@H](C2)NC(=O)[C@H]([C@@H](C)c2c[nH]c3c(OC)cccc23)NC(=O)CN(C)C(=O)[C@H](Cc2ccc(OC)cc2)NC(=O)[C@H](Cc2ccc(C(N)=O)cc2)NC(=O)[C@](C)(CO)NC(=O)[C@H](Cc2c[nH]c3c(C#N)cccc23)NC(=O)[C@H](Cc2ccncc2)NC(=O)[C@H](CC(N)=O)NC(=O)[C@H]2C[C@H](O)CN2C(=O)[C@H](Cc2c[nH]c3ccccc23)NC(=O)[C@@H]2CNCCN2C(=O)[C@H](Cc2ccncc2)NC1=O [SEQ ID NO. 200] (cyclo([4Pal][Trp(7-CN)][αMeS][Phe(4-CONH2)]Y(Me)[Sar][Trp(βS-Me,7-OMe)][X1][Ahp(2)][4Pal][Pip(4-aza)]W[dHyp]N))
- Kd [1]: 0.02 nM
- Kd (human TNFR2 ECD protein): > 1000 nM
- IC50 [2]: 1 nM

SMILES: CCCC[C@@H]1NC(=O)CSC[C@@H](C(N)=O)NC(=O)[C@H](Cc2cn(C)c3ccccc23)NC(=O)CN(C)C(=O)[C@H](Cc2ccc(O)cc2)NC(=O)[C@H](Cc2ccc(C(=O)O)cc2)NC(=O)[C@](C)(CO)NC(=O)[C@H](Cc2c[nH]c3c(Cl)cccc23)NC(=O)[C@H](Cc2ccncc2)NC(=O)[C@H](CC(N)=O)NC(=O)[C@H](CCC(=O)O)N(C)C(=O)[C@H](Cc2c[nH]c3ncccc23)NC(=O)[C@H](CO)NC(=O)[C@H](Cc2ccncc2)NC1=O [SEQ ID NO. 223] ({CH2CO}-[Nle][4Pal]S[Trp(7-aza)][NMeE]N[4Pal][Trp(7-Cl)][αMeS][Phe(4-COOH)]Y[Sar][Trp(1-Me)]C-NH2; thioether N-14)
- Kd [1]: 0.3 nM
- Kd (human TNFR2 ECD protein): > 1000 nM
- IC50 [2]: 2.9 nM

SMILES: CCCC[C@@H]1NC(=O)[C@@H]2CC[C@@H](C2)NC(=O)[C@H]([C@@H](C)c2c[nH]c3c(OC)cccc23)NC(=O)CN(C)C(=O)[C@H](Cc2ccc(C(=O)O)cc2)NC(=O)[C@H](Cc2ccc(C(N)=O)cc2)NC(=O)[C@](C)(CO)NC(=O)[C@H](Cc2c[nH]c3c(C#N)cccc23)NC(=O)[C@H](Cc2ccc(C(=O)O)c(F)c2)NC(=O)[C@H](CC(N)=O)NC(=O)[C@H]2C[C@H](O)CN2C(=O)[C@H](Cc2c[nH]c3ncccc23)NC(=O)[C@@H]2CC[C@@H](O)CN2C(=O)[C@H](Cc2ccncc2)NC1=O [SEQ ID NO. 8] (cyclo([4Pal][Pip(5R-OH)][Trp(7-aza)][dHyp]N[X27][Trp(7-CN)][αMeS][Phe(4-CONH2)][Phe(4-COOH)][Sar][Trp(βS-Me,7-OMe)][X1][Nle]))
- Kd [1]: 0.08 nM
- Kd (human TNFR2 ECD protein): > 1000 nM
- IC50 [2]: 0.7 nM
